# According to ChEMBL document CHEMBL5614460, “Discovery of novel substituted pyridine carboxamide derivatives as potent allosteric SHP2 inhibitors” (Eur J Med Chem, 2024):
# Active and inactive are the calls of the source. The calls are words filed in the database; no cut-off is given here.
# Experiments:
# [1] = Toxicity in BALB/C nude mouse xenografted with human […] cells assessed as animal death at 30 mg/kg, IG administered once daily for 18 days; assay type: organism-based; conditions: in vivo, po, 432 h, time 18 day
# MV4-11 [2] = experiment: Antiproliferative activity against human MV4-11 cells assessed as inhibition of cell proliferation incubated for 72 hrs by CCK-8 assay; assay type: functional, cell-based
# MV4-11 [3] = experiment: Antitumor activity against human MV4-11 cells xenografted in BALB/C nude mouse model assessed as tumor growth inhibition at 30 mg/kg, IG administered once daily for 18 days relative to control; assay type: functional; conditions: MV4-11, po, 432 h, time 18 day, read-out: TGI
# [4] = Toxicity in BALB/C nude mouse xenografted with human […] cells assessed as change in body weight at 30 mg/kg, IG administered once daily for 18 days; assay type: organism-based; conditions: in vivo, po, 432 h, time 18 day
# [5] = target: T1, Tyrosine-protein phosphatase non-receptor type 11 (Homo sapiens, UniProt Q06124); experiment: Inhibition of SHP2 (unknown origin)
# T1 sequence (Q06124 whole entry): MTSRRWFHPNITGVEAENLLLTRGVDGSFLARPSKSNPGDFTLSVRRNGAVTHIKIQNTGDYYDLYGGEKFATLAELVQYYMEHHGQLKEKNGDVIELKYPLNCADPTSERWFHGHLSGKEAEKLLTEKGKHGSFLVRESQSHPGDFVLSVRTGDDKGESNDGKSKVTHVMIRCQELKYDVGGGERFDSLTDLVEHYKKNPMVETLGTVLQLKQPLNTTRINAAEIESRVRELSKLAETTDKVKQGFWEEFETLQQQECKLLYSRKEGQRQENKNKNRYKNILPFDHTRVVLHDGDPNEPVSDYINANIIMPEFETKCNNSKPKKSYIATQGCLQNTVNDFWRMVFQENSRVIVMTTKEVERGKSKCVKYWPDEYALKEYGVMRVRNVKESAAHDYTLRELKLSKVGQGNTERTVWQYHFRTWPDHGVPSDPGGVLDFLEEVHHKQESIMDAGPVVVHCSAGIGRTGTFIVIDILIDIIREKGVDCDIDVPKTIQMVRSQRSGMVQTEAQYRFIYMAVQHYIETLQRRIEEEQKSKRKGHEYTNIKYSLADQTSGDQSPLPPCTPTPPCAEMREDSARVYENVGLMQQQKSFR
# MV4-11 [6] = experiment: Antitumor activity against human MV4-11 cells xenografted in BALB/C nude mouse model assessed as tumor growth inhibition at 10 mg/kg, IG administered once daily for 18 days relative to control; assay type: functional; conditions: MV4-11, po, 432 h, time 18 day, read-out: TGI
# MV4-11 [7] = experiment: Antitumor immunity against human MV4-11 cells xenografted in BALB/C nude mouse model assessed as suppression of CD206+/Ly6C+ M2-like tumor associated macrophages in lymphocytes at 10 to 30 mg/kg, IG administered once daily for 18 days by flow cytometric analysis; assay type: functional, organism-based; conditions: dose 10-30 mg/kg, time 18.0 day
# [8] = Oral bioavailability in male Sprague-Dawley rat at 10 mg/kg measured for 24 hrs by LC/MS analysis; assay type: ADME, organism-based; conditions: in vivo
# [9] = Half life in male Sprague-Dawley rat at 2 mg/kg, iv measured for 24 hrs by LC/MS analysis; assay type: ADME, organism-based; conditions: in vivo
# [10] = target: T2, Tyrosine-protein phosphatase non-receptor type 11 (Homo sapiens) (UniProt Q06124); experiment: Inhibition of SHP2 in human MV4-11 cells assessed as downregulation of phosphorylated Akt level incubated for 12 hrs by Western blot analysis; assay type: cell-based; conditions: dose 0-5 µM
# T2 sequence (whole entry): T1 sequence (Q06124 whole entry)
# MV4-11 [11] = experiment: Antitumor activity against human MV4-11 cells xenografted in BALB/C nude mouse model assessed as suppression of tumor growth administered intragastrically as once daily dose for 18 days; assay type: functional, cell-based; conditions: dose 10-30 mg/kg, route ig, time 18.0 day
# [12] = target: T1, Tyrosine-protein phosphatase non-receptor type 11; experiment: Allosteric inhibition of N-terminal His-tagged human recombinant SHP2 extracted from Escherichia coli using DiFMUP as substrate preincubated with compound for 60 mins followed by substrate addition and measured after 30 mins by fluorescence based microplate reader analysis
# [13] = target: T2, Tyrosine-protein phosphatase non-receptor type 11 (Homo sapiens); experiment: Inhibition of SHP2 PTP domain (unknown origin) using DiFMUP as substrate at 10 uM preincubated with compound for 60 mins followed by substrate addition and measured after 30 mins by fluorescence based microplate reader analysis relative to control; conditions: time 90.0 min
# MV4-11 [14] = experiment: Antitumor immunity against human MV4-11 cells xenografted in BALB/C nude mouse model assessed as reduction of IL-10 expression level in tumor at 30 mg/kg, IG administered once daily for 18 days by ELISA; assay type: functional, organism-based; conditions: time 18.0 day
# [15] = AUC (0 to infinity) in male Sprague-Dawley rat at 2 mg/kg, iv measured for 24 hrs by LC/MS analysis; assay type: ADME, organism-based; conditions: in vivo
# [16] = Toxicity in BALB/C nude mouse xenografted with human […] cells assessed as change in body weight at 10 to 30 mg/kg, IG administered once daily for 18 days; assay type: organism-based; conditions: in vivo, po, 432 h, dose 10-30 mg/kg, time 18 day
# [17] = Cmax in male Sprague-Dawley rat at 2 mg/kg, iv measured for 24 hrs by LC/MS analysis; assay type: ADME, organism-based; conditions: in vivo
# [18] = Tmax in male Sprague-Dawley rat at 2 mg/kg, iv measured for 24 hrs by LC/MS analysis; assay type: ADME, organism-based; conditions: in vivo
# [19] = Half life in male Sprague-Dawley rat at 10 mg/kg, po measured for 24 hrs by LC/MS analysis; assay type: ADME, organism-based; conditions: in vivo
# [20] = AUC (0 to infinity) in male Sprague-Dawley rat at 10 mg/kg, po measured for 24 hrs by LC/MS analysis; assay type: ADME, organism-based; conditions: in vivo
# [21] = Cmax in male Sprague-Dawley rat at 10 mg/kg, po measured for 24 hrs by LC/MS analysis; assay type: ADME, organism-based; conditions: in vivo
# MV4-11 [22] = experiment: Antitumor activity against human MV4-11 cells xenografted in BALB/C nude mouse model assessed as appearance of shrunken nuclei in tumor at 10 to 30 mg/kg, IG administered once a day for 18 days by H and E staining based analysis; assay type: functional, organism-based; conditions: dose 10-30 mg/kg, time 18.0 day
# [23] = target: Tyrosine-protein phosphatase non-receptor type 6 (Homo sapiens) (UniProt P29350); experiment: Inhibition of SHP1 (unknown origin) using DiFMUP as substrate at 10 uM preincubated with compound for 60 mins followed by substrate addition and measured after 30 mins by fluorescence based microplate reader analysis relative to control; conditions: time 90.0 min
# Tyrosine-protein phosphatase non-receptor type 6 (Homo sapiens), sequence (P29350 whole entry): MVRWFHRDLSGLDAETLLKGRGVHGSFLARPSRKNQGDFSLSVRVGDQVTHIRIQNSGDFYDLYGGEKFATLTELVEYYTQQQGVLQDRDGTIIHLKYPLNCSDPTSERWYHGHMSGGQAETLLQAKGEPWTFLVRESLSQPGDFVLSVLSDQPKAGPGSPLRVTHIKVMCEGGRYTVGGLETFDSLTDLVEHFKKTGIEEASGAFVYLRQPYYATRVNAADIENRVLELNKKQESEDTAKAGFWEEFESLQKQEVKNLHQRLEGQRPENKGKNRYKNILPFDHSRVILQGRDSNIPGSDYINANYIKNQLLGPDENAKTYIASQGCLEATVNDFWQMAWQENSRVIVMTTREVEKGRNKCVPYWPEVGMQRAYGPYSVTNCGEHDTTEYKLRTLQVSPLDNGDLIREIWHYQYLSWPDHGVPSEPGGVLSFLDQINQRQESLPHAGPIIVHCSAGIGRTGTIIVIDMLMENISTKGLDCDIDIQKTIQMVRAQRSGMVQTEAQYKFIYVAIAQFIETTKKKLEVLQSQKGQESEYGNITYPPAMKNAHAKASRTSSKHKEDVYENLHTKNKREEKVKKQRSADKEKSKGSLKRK
# [24] = Apparent volume of distribution during terminal phase in male Sprague-Dawley rat at 2 mg/kg, iv measured for 24 hrs by LC/MS analysis; assay type: ADME, organism-based; conditions: in vivo
# [25] = Tmax in male Sprague-Dawley rat at 10 mg/kg, po measured for 24 hrs by LC/MS analysis; assay type: ADME, organism-based; conditions: in vivo
# [26] = target: T2, Tyrosine-protein phosphatase non-receptor type 11 (Homo sapiens); experiment: Inhibition of SHP2 in human MV4-11 cells assessed as downregulation of phosphorylated ERK level incubated for 12 hrs by Western blot analysis; assay type: cell-based; conditions: dose 0-5 µM
# MV4-11 [27] = experiment: Antitumor immunity against human MV4-11 cells xenografted in BALB/C nude mouse model assessed as reduction in F4/80+/CD206+ M2-like tumor associated macrophages at 10 to 30 mg/kg, IG administered once daily for 18 days by immunofluorescence staining […]; assay type: functional, organism-based; conditions: dose 10-30 mg/kg, time 18.0 day
# MV4-11 [28] = experiment: Antitumor activity against human MV4-11 cells xenografted in BALB/C nude mouse model assessed as reduction in Ki67 expression administered intragastrically as once daily dose for 18 days by immunohistochemistry staining based analysis; assay type: functional, cell-based; conditions: dose 10-30 mg/kg, route ig, time 18.0 day
# MV4-11 [29] = experiment: Potency index, ratio of TNO155 IC50 to test compound IC50 for antiproliferative activity against human MV4-11 cells assessed as inhibition of cell proliferation incubated for 72 hrs by CCK-8 assay; assay type: functional
# [30] = Toxicity in BALB/C nude mouse xenografted with human […] cells assessed as animal death at 10 to 30 mg/kg, IG administered once daily for 18 days; assay type: organism-based; conditions: in vivo, po, 432 h, dose 10-30 mg/kg, time 18 day
# [31] = target: T3, Tyrosine-protein phosphatase non-receptor type 1 (Homo sapiens) (UniProt P18031); experiment: Inhibition of PTP1B (unknown origin) using DiFMUP as substrate at 10 uM preincubated with compound for 60 mins followed by substrate addition and measured after 30 mins by fluorescence based microplate reader analysis relative to control; conditions: time 90.0 min
# T3 sequence (whole entry): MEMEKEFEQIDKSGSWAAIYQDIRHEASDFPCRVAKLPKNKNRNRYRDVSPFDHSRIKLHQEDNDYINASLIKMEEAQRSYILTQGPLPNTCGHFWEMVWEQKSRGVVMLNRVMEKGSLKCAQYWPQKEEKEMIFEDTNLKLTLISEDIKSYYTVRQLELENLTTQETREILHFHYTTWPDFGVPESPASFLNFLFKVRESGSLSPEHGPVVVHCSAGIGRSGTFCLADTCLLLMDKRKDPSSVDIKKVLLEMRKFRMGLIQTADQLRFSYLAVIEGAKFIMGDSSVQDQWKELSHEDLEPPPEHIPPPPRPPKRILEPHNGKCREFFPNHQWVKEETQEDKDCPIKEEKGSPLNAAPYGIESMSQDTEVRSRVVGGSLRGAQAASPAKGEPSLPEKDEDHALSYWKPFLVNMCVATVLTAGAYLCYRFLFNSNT
# MV4-11 [32] = experiment: Antitumor activity against human MV4-11 cells xenografted in BALB/C nude mouse model assessed as appearance of pyknotic nuclei in tumor at 10 to 30 mg/kg, IG administered once a day for 18 days by H and E staining based analysis; assay type: functional, organism-based; conditions: dose 10-30 mg/kg, time 18.0 day
# [33] = Apparent clearance during terminal phase in male Sprague-Dawley rat at 2 mg/kg, iv measured for 24 hrs by LC/MS analysis; assay type: ADME, organism-based; conditions: in vivo
structure (smiles),measurement,setting,value
C[C@@H]1OCC2(CCN(c3cnc(Sc4ccnc(N)c4Cl)c(N)n3)CC2)[C@@H]1N [BATOPROTAFIB],Activity,[1],Non-Toxic
same,IC50,MV4-11 [2]; mv4-11,39 nM
same,inhibition in vivo at 30 mg/kg,MV4-11 [3],70.8%
same,Activity,[4],Non-Toxic
Cc1nc(N2CCC3(CC2)CO[C@@H](C)[C@H]3N)c(CO)nc1Sc1ccnc(N)c1Cl [VOCIPROTAFIB],IC50,[5],1.5 nM
N[C@@H]1c2ccccc2CC12CCN(c1cnc(Sc3cccc(NC(=O)c4cnccc4O)c3Cl)cn1)CC2,inhibition in vivo at 10 mg/kg,MV4-11 [6],45.9%
same,Activity,MV4-11 [7],Active
same,bioavailability,[8],11.9%
same,half-life,[9],4.26 h
same,inhibition,[10],Dose-Dependent Effect
same,Activity,MV4-11 [11],Dose-Dependent Effect
same,IC50,[12],0.13 nM
same,inhibition,[13],13.2%
same,Activity,MV4-11 [14],Active
same,AUC(0-inf),[15],1260 ng·h/mL
same,Activity,[16],Non-Toxic
same,Cmax,[17],681 ng/mL
same,Tmax,[18],1.8 min
same,half-life,[19],4.66 h
same,AUC(0-inf),[20],762 ng·h/mL
same,Cmax,[21],70.1 ng/mL
same,IC50,"MV4-11 [2]; Homo sapiens, MV4-11, 72 h",3.5 nM
same,Activity,MV4-11 [22],Active
same,inhibition,[23],29.3%
same,Vz/F,[24],11.04 L/kg
same,Tmax,[25],3.24 h
same,inhibition,[26],Dose-Dependent Effect
same,Activity,MV4-11 [27],Active
same,inhibition in vivo at 30 mg/kg,MV4-11 [3],69.5%
same,Activity,MV4-11 [28],Dose-Dependent Effect
same,Ratio IC50,MV4-11 [29],~11
same,Activity,[30],Non-Toxic
same,inhibition,[31],8.7%
same,Activity,MV4-11 [32],Active
same,CLz/F,[33],29 mL/min/kg
